Assay results taken from paper PMC11541474, “Toward New Therapeutics for Visceral Leishmaniasis: Efficacy and Mechanism of Action of Amides Inspired by Gibbilimbol B” (ACS Omega, 2024).

What was measured:
[1] = system: L. (L.) infantum promastigotes; assay: in vitro activity against promastigote forms of L. (L.) infantum; format: cell-based, Leishmania (L.) infantum; conditions: Leishmania infantum; L. (L.) infantum promastigotes; read-out: Ec50 Promastigote (μm) ± SD
Experimental: (§1) Evaluation of in vitro activity against promastigote and amastigote forms of L. (L.) infantum was performed as previously reported assays.[40]−[43] The CC50 and EC50 values were calculated using sigmoidal dose–response curves using Graph Pad Prism 5.0 software. One-way ANOVA testing with Tukey’s multiple comparison tests were used for evaluation of the statistical significance (p-value) of differences between the samples, which were tested in duplicate and all assays were repeated at least twice.

[2] = in vitro mammalian toxicity against NCTC cells; format: cell-based; conditions: 50% cytotoxic concentration, read-out: Cc50 Nctc (μm) ± SD
Experimental: as §1, with “mammalian toxicity” for “activity”, “NCTC cells” for “promastigote and amastigote forms of L. (L.) infantum”, “described.[40] The selectivity index was determined using the following equation: CC50 against NCTC cells/EC50 against amastigotes.[44]” for “reported assays.[40]−[43]”

[3] = system: L. (L.) infantum promastigotes; format: cell-based, Leishmania (L.) infantum
Source text: Changes in the plasma membrane integrity of Leishmania spp. can lead to cell death due to pore formation, pH imbalance, and nutrient-transport failure. Initially, the fluorescent probe Sytox Green was employed to analyze the permeability of the plasma membrane. […] Untreated parasites were used as a negative control for normalization (0% permeabilization) whereas the nonionic surfactant Triton X-100 was used for as positive control (100% permeabilization).
Figure 4 Plasma membrane permeability in L. (L.) infantum promastigotes after 4 h of treatment with compound (A) 9 (141.5 μM) or (B) 10 (110.1 μM), using the fluorescent probe Sytox Green (p < 0.0001). Negative control: untreated parasites; positive control: Triton X-100 (TX-100).
Assays for determination of plasma membrane integrity of L. (L.) infantum were conducted as previously reported.[46] Briefly, compounds 9 (141.5 μM) and 10 (110.1 μM) were added to different wells and the resulting fluorescence was measured using a fluorimetric microplate reader (FilterMax F5Multi-Mode, Molecular Devices). Triton X-100 (0.5%, v/v) and untreated parasites were used as positive negative controls, respectively.[47]

[4] = system: L. (L.) infantum promastigotes; format: cell-based, Leishmania (L.) infantum; conditions: 9 at 141.5 μM, 10 at 110.1 μM, after 240 min
Experimental: Figure 5 Evaluation of ROS in promastigotes of L. (L.) infantum treated with compounds 9 (141.5 μM) or 10 (110.1 μM). […]
Measurements of ROS were conducted as previously reported.[48] Briefly, promastigotes were treated with compounds 9 (141.5 μM) or 10 (110.1 μM) in HBSS+Glu at 24 °C using H2DCFDA (Molecular Probes). Fluorescence was measured using a fluorimetric microplate reader (FilterMax F5Multi-Mode, Molecular Devices) with excitation and emission filters at 485 and 520 nm, respectively.[48] Untreated and treated parasites (H2O2 - 40 μM) were used as negative and positive controls, respectively.

[5] = system: L. (L.) infantum promastigotes; assay: parasite protein spectral profiling (MALDI-TOF/MS); format: cell-based, Leishmania (L.) infantum; conditions: 9 at 141.5 μM, 10 at 110.1 μM, 24 h incubation
Experimental: Finally, the protein variations of Leishmania after treatment with compounds 9 and 10 were investigated using MALDI-TOF/MS analysis.[37],[38] […] Panel I. Promastigotes were incubated with compound 9 (141.5 μM), compound 10 (110.1 μM). Miltefosine was used as positive control whereas untreated parasites were used as a negative control. The peaks observed at m/z 6,153 and m/z 7,187 (blue) allow the identification of the Leishmania subgenus. Increases in peak intensity resulting from the incubation of promastigotes with compound 9 or 10 can be observed at m/z 3,081, 5,542, and 11,079 (red). Panel II. A schematic gel showing mass spectra in the m/z 2,000–20,000 range (B, D, F, H); raw spectra are shown in blue (A, C, E, G), whereas spectra generated after normalization, smoothing, and baseline subtraction are shown in red. (A) and (B), results from untreated promastigotes (negative control); (C) and (D); results from promastigotes incubated with compound 9; (E) and (F), results from promastigotes incubated with compound 10; and (G) and (H) results from promastigotes incubated with miltefosine (standard treatment drug and positive control). MALDI-TOF/MS was used to investigate protein changes in stationary-phase L. (L.) infantum promastigotes that were induced by treatment with compound 9 (141.5 μM), compound 10 (110.1 μM), or the standard drug miltefosine. […]

| Compound | EC50 [1] | CC50 [2] | permeabilization of the plasma membrane (Sytox Green) [3] | ROS levels compared with negative control (H2DCFDA) [4] | MALDI-TOF/MS protein spectral profile compared with untreated parasites [5] |
| --- | --- | --- | --- | --- | --- |
| CCCCC(CC)CNC(=O)c1ccc(Cl)cc1 (stereo not shown) [Compound 9, N-(2-Ethylhexyl)-4-chlorobenzamide] | 41.9 ± 2.1 µM | > 200 µM | did not induce permeabilization of the membrane | significantly reduced ROS levels | increased the intensity of the spectral peaks |
| CCCCC(CC)CNC(=O)c1ccc([N+](=O)[O-])cc1 (stereo not shown) [Compound 10, N-(2-Ethylhexyl)-4-nitrobenzamide] | 44.3 ± 0.4 µM | > 200 µM | did not induce permeabilization of the membrane | significantly reduced ROS levels | increased the intensity of the spectral peaks |
